Measured values as given in US20230250095A1, “BENZIMIDAZOLE DERIVATIVES, PREPARATION METHOD THEREFOR AND MEDICAL USE THEREOF” (TUOJIE BIOTECH(SHANGHAI) CO., LTD., priority 2020, published 2023).

Test system: not listed separately
Test: In vitro metabolic stability in human hepatocytes
Type: in vitro ADME
Settings: human hepatocytes 1×10^6 cells/mL, 37° C., up to 120 min; read-out: Intrinsic clearance (uL/min/10^6 cells)
Protocol: The concentrations of the test compounds in the reaction system were determined by LC/MS/MS, so that the intrinsic clearance of the test compounds was calculated, and the in vitro metabolic stability in human hepatocytes was evaluated.
247.5 μL of a mixed solution of human hepatocytes at 1×10^6 cells/mL (purchased from BioreclamationIVT, Cat. No. S01205) and 2.5 μL of 100 μM test compound or positive control was added to a plate to initiate the reaction. The plate was incubated at 37° C. and 600 rpm. 20 μL of incubation system was transferred to a stop plate at 0.5 min, 5 min, 15 min, 30 min, 45 min, 60 min, 80 min, 100 min and 120 min. Then, the mixture was vortexed for 2 min to be mixed well. The stop plate was centrifuged at 4000 rpm for 20 min. 40 μL of supernatant of each compound was transferred to a 96-well sample template, after which 160 μL of pure water was added to dilute the samples.
The resulting samples were quantified from ion chromatogram. The residual rate was calculated from the peak area of the test compound or the positive control. Slope k was determined by linear regression of the […] of residual rates versus incubation time using Microsoft Excel.
Intrinsic clearance (in vitro CLint, μL/min/10^6 cells) was calculated from the slope value according to the following equation:
V=incubation volume (0.25 mL);
N=number of cells per well (0.25×10^6 cells)

| hepatocyte CLint at 1 μM [µL/min/1e6 cells] | Structure (SMILES) |
| --- | --- |
| 4.1 | CCC(=O)N1CCO[C@@H](Cn2c(-c3c(Cl)cc4c(c3F)OCC(=O)N4)nc3cc(C)ccc32)C1 [Compound 17, (S)-6-chloro-8-fluoro-7-(5-methyl-1-((4-propionylmorpholin-2-yl)methyl)-1H-benzo[d]imidazol-2-yl)-2H-benzo[b][1,4]oxazin-3(4H)-one] |

Target: T1, hP2X2/3 (Homo sapiens, UniProt P56373+Q9UBL9)
T1 construct: host or cells: 1321N1 cells
T1 sequence (Q9UBL9 1-471): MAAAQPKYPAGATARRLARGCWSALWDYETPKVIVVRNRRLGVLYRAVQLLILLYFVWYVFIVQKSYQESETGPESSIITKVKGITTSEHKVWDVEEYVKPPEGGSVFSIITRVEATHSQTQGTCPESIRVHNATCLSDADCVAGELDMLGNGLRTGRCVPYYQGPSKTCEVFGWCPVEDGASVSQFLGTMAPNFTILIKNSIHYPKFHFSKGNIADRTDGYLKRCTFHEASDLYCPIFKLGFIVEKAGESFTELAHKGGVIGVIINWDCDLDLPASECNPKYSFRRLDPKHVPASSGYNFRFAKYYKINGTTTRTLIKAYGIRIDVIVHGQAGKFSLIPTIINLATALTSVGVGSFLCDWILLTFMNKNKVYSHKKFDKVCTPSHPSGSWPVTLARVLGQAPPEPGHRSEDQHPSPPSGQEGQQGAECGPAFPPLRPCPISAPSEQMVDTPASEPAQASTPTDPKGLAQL
T1 sequence (P56373 1-397): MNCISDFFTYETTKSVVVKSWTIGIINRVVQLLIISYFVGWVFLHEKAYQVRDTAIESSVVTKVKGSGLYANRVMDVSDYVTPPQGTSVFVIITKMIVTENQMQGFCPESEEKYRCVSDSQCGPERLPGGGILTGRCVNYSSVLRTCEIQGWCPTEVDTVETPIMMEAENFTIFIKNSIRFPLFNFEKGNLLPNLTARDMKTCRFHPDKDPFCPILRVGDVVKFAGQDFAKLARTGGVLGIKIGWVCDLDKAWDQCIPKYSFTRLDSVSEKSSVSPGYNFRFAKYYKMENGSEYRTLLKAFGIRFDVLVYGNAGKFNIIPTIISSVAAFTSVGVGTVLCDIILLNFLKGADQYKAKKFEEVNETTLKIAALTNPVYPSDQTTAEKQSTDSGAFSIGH
Test: FLIPR calcium flux assay, antagonistic activity against hP2X2/3 receptor
Type: cell-based
Settings: 1321N1/hP2X2/3 cells, agonist α,β-meATP 1000 nM
Protocol: (§1) The compounds were screened for antagonistic activity against hP2X3 and hP2X2/3 receptors (changes in calcium flux signals represent the effect of the compounds on ion channels) by an FLIPR assay.
(§2) 1321N1 cells (adherent cells) stably transfected with hP2X3 and hP2X2/3 receptors were digested, centrifuged, resuspended in a plating medium (DMEM+10% DFBS) and counted, adjusted to 2×10^5 cells/mL. The cells were seeded in a 384-well assay plate at 50 μL/well, and incubated in an incubator at 37° C. with 5% CO2 for 16-24 h. Test compounds (20 mM DMSO stock solution) that were 180 times the desired concentration were prepared with DMSO, and added to a 384-well compound plate at 500 nL/well. Then, each well was supplemented with 30 μL of FLIPR buffer (lx HBSS containing 1.26 mM Ca^2++2 mM CaCl2)+20 mM HEPES), and the mixture was shaken for 20-40 min to be mixed well. The agonist α,β-meATP (final concentration of 500 nM for hP2X3 cells and final concentration of 1000 nM for hP2X2/3 cells) that was 3 times the desired concentration was prepared with an FLIPR buffer, and added to another 384-well compound plate at 35 μL/well. The cell plate in which cells had been plated and cultured for 16-24 h was taken out, and the cell supernatant was removed by pipetting. 30 μL of dye (FLIPR® calcium 4 assay kit, diluted with an FLIPR buffer) was added to each well, and the plate was incubated for 1 h. 15 μL of the compound was added to each well containing cells (dosing using an FLIPR instrument), and after 15 min, 22.5 μL of agonist was added to each well and the fluorescent signal was detected (excitation wavelength: 470-495 nm, emission wavelength: 515-575 nm). With the difference between the peak and the trough of the signal taken as the basic data, the data of the highest concentration of the positive drug taken as the 100% inhibition rate, and the data of DMSO taken as the 0% inhibition rate, the inhibition effect curves of the compounds were fitted on the software Graphpad Prism 6 and IC50 values were calculated.

| IC50 [nM] | Structure (SMILES) |
| --- | --- |
| 3500 | CCC(=O)N1CCO[C@@H](Cn2c(-c3c(Cl)cc4c(c3F)OCC(=O)N4)nc3cc(C)ccc32)C1 [Compound 17, (S)-6-chloro-8-fluoro-7-(5-methyl-1-((4-propionylmorpholin-2-yl)methyl)-1H-benzo[d]imidazol-2-yl)-2H-benzo[b][1,4]oxazin-3(4H)-one] |

Target: T2, hP2X3 (Homo sapiens, UniProt P56373)
T2 construct: host or cells: 1321N1 cells
T2 sequence (P56373 1-397): T1 sequence (P56373 1-397)
Test: FLIPR calcium flux assay, antagonistic activity against hP2X3 receptor
Type: cell-based
Settings: 1321N1/hP2X3 cells, agonist α,β-meATP 500 nM
Protocol: as §1, §2

| IC50 [nM] | Structure (SMILES) |
| --- | --- |
| 85.1 | Cc1ccc2c(c1)nc(-c1c(F)cc(N3CCCC3=O)cc1Cl)n2C[C@H]1CN(C(=O)C2CC2)CCO1 [Compound 15, (S)-1-(3-chloro-4-(1-((4-(cyclopropylcarbonyl)morpholin-2-yl)methyl)-5-methyl-1H-benzo[d]imidazol-2-yl)-5-fluorophenyl)pyrrolidin-2-one] |
| 70.5 | Cc1ccc2c(c1)nc(-c1c(F)cc(N3CCCC3=O)cc1Cl)n2C[C@H]1CN(C(=O)CC(F)(F)F)CCO1 [Compound 16, (S)-1-(3-chloro-5-fluoro-4-(5-methyl-1-((4-(3,3,3-trifluoropropionyl)morpholin-2-yl)methyl)-1H-benzo[d]imidazol-2-yl)phenyl)pyrrolidin-2-one] |
| 45.3 | CCC(=O)N1CCO[C@@H](Cn2c(-c3c(Cl)cc4c(c3F)OCC(=O)N4)nc3cc(C)ccc32)C1 [Compound 17, (S)-6-chloro-8-fluoro-7-(5-methyl-1-((4-propionylmorpholin-2-yl)methyl)-1H-benzo[d]imidazol-2-yl)-2H-benzo[b][1,4]oxazin-3(4H)-one] |

Continued, molecule first:

| Structure (SMILES) | IC50 [nM] |
| --- | --- |
| CC(=O)N1CCO[C@@H](Cn2c(-c3c(F)cc(N4CCCC4=O)cc3F)nc3cc(C(F)F)ccc32)C1 [Compound 5, (S)-1-(4-(1-((4-acetylmorpholin-2-yl)methyl)-5-(difluoromethyl)-1H-benzo[d]imidazol-2-yl)-3,5-difluorophenyl)pyrrolidin-2-one] | 100 |
| CNC(=O)c1cc(F)c(-c2nc3cc(C)cnc3n2C[C@H]2CN(C(=O)OC)CCO2)c(F)c1 [Compound 6, Methyl (S)-2-((2-(2,6-difluoro-4-(methylcarbamoyl)phenyl)-6-methyl-3H-imidazo[4,5-b]pyridin-3-yl)methyl)morpholine-4-carboxylate] | > 10000 |
| CNC(=O)c1cc(F)c(-c2nc3nc(C)ccc3n2C[C@H]2CN(C(=O)OC)CCO2)c(F)c1 [Compound 7, Methyl (S)-2-((2-(2,6-difluoro-4-(methylcarbamoyl)phenyl)-5-methyl-1H-imidazo[4,5-b]pyridin-1-yl)methyl)morpholine-4-carboxylate] | 5840 |
| CNC(=O)c1cc(F)c(-c2nc3cc(C)ncc3n2C[C@H]2CN(C(=O)OC)CCO2)c(F)c1 [Compound 8, Methyl (S)-2-((2-(2,6-difluoro-4-(methylcarbamoyl)phenyl)-6-methyl-3H-imidazo[4,5-c]pyridin-3-yl)methyl)morpholine-4-carboxylate] | > 10000 |
| CC(=O)N1CCO[C@@H](Cn2c(-c3c(F)cc(N4CCCC4=O)cc3Cl)nc3cc(C)c(F)cc32)C1 [Compound 11, (S)-1-(4-(1-((4-acetylmorpholin-2-yl)methyl)-6-fluoro-5-methyl-1H-benzo[d]imidazol-2-yl)-3-chloro-5-fluorophenyl)pyrrolidin-2-one] | 79.4 |
| CC(=O)N1CCO[C@@H](Cn2c(-c3c(F)cc(N4CCCC4=O)cc3Cl)nc3cc(Cl)c(F)cc32)C1 [Compound 12, (S)-1-(4-(1-((4-acetylmorpholin-2-yl)methyl)-5-chloro-6-fluoro-1H-benzo[d]imidazol-2-yl)-3-chloro-5-fluorophenyl)pyrrolidin-2-one] | 87.7 |
| CC(=O)N1CCO[C@@H](Cn2c(-c3c(F)cc(N4CCCC4=O)cc3F)nc3cc(Cl)cc(F)c32)C1 [Compound 13, (S)-1-(4-(1-((4-acetylmorpholin-2-yl)methyl)-5-chloro-7-fluoro-1H-benzo[d]imidazol-2-yl)-3,5-difluorophenyl)pyrrolidin-2-one] | 766 |
